Assay results from patent publication US11866515B2, “Hemiasterlin derivatives for conjugation and therapy” (priority 2015, dated 2024).

B1: anti-CD74: anti-CD74 lead SP7919 without conjugation (antibody, V domains shown)
VH: QVQLVESGGGVVQPGRSLRLSCAASGFNFSDYGMHWVRQAPGKGLEWVAVIWYDGSISYYADSVKGRFTISRDNSKNTLYLQMNSLRAEDTAVYYCARGGTVEHGAVYGTDVWGQGTTVTVSS
VL: DIQMTQSPSSVSASVGDRVTITCRASQGIGSWLAWYQQKPGKAPKLLIYAADRLQSGVPSRFSGSGSGTDFTLTISSLQPEDFATYYCQQYHTYPLTFGGGTKVEIK
modifications: non-natural residues

How the values were obtained:
Target Positive Cell = test: Tumor cell line assay Example 2b, target positive cells; type: cell-based; settings: hemiasterlin derivatives, 120 hrs
Experimental: (§1) Cytotoxicity effects of test compounds on target positive and target negative cells were measured with a cell proliferation assay. Tumor cell lines were obtained from American Type Culture Collection (ATCC) and maintained in Ham's F-12: high glucose DMEM (50:50) glucose medium supplemented with 10% heat-inactivated fetal bovine serum, 1% Penicillin/Streptomcin and 2 mmol/L L-glutamax. Target positive and negative cells (a total of 625 cells per well) were seeded in a volume of 25 μL in a 384-well flat bottom white polystyrene plate. The cells were allowed to adhere overnight at 37° C. in a CO2 incubator. ADC variants were formulated at 2× concentration in DMEM/F12 medium and filtered through MultiScreen HTS 96-Well Filter Plates. Filter sterilized ADCs were serial diluted (1:3) and 25 μL of diluted samples were added into each treatment wells. Plates were then cultured at 37° C. in a CO2 incubator for 120 hrs. For cell viability measurement, 30 μL of Cell Titer-Glo® reagent (Promega Corp) was added into each well, and plates processed as per product instructions. Relative luminescence was measured on an ENVISION® plate reader (Perkin-Elmer; Waltham, Mass.). Relative luminescence readings were converted to % viability using untreated cells as controls. Data was fitted with non-linear regression analysis, using log(inhibitor) vs. response, variable slope, 4 parameter fit equation using GraphPad Prism (GraphPad v 5.00, Software; San Diego, Calif.). Data was expressed as % relative cell viability vs. dose of ADC in nM.

Target Negative Cell = test: Tumor cell line assay Example 2b, target negative cells; type: cell-based; settings: hemiasterlin derivatives, 120 hrs
Experimental: as §1

RPMI-6666 (HL) = test: Cell binding assay anti-CD74, RPMI-6666; settings: B-Lymphoma
Experimental: (§2) Cell lines were maintained in RPMI, high glucose (Cellgro-Mediatech; Manassas, Va.) supplemented with 20% heat-inactivated fetal bovine serum (Hyclone; Thermo Scientific; Waltham, Mass.), 2 mM glutamax (Invitrogen; Carlsbad, Calif.) and 1× Pencillin/streptomycin (Cellgro-Mediatech; Manassas, Va.). Cells were harvested and re-suspended in FACS buffer (DPBS buffer supplemented with 1% bovine serum albumin). A total of 200,000 cells per well were incubated on ice with serial dilutions of anti-CD74 lead SP7919 without conjugation for 60 minutes. Cells were washed twice with ice-cold FACS buffer and incubated with 5 ug/ml Alexa 647 labeled donkey anti-human IgG antibody (Jackson Immune-Research) on ice for another 60 mins. Unstained cells and cells stained with secondary antibody alone were used as controls. Samples were then washed twice using FACS buffer and analyzed using a BD FACS Canto system. Mean fluorescence intensities were fitted using non-linear regression analysis with one site specific binding equation on GraphPad Prism. Data was expressed as geometric mean fluorescent intensity vs. antibody concentration in nM.

SU-DHL-6 (NHL) = test: Cell binding assay anti-CD74, SU-DHL-6; settings: B-Lymphoma
Experimental: as §2

ARD (MM) = test: Cell binding assay anti-CD74, ARD; settings: Multiple Myeloma
Experimental: as §2

RPMI-8226 (MM) = test: Cell binding assay anti-CD74, RPMI-8226; settings: Multiple Myeloma
Experimental: as §2

BDCM (AML) = test: Cell binding assay anti-CD74, BDCM; settings: Leukemia
Experimental: as §2

SUP-B15 (ALL) = test: Cell binding assay anti-CD74, SUP-B15; settings: Leukemia
Experimental: as §2

JVM-13 (CLL) = test: Cell binding assay anti-CD74, JVM-13; settings: Leukemia
Experimental: as §2

Row | Molecule | IC50 (Target Positive Cell) [nM] | Target Positive Cell Span (%) (Target Positive Cell) | IC50 (Target Negative Cell) [nM] | Target Negative Cell Span (%) (Target Negative Cell) | also measured
1 | CN[C@H](C(=O)N[C@H](C(=O)N(C)[C@H](/C=C(\C)C(=O)O)C(C)C)C(C)(C)C)C(C)(C)c1cccc(NC(=O)OCc2ccc(NC(=O)[C@H](CCCNC(N)=O)NC(=O)[C@@H](NC(=O)CCC(=O)N3Cc4ccccc4C#Cc4ccccc43)C(C)C)cc2)c1 (single isomer, unassigned) [Compound 101a] | 222 | 93 | 2010 | 110 | –
2 | CN[C@H](C(=O)NC(C(=O)N(C)[C@H](/C=C(\C)C(=O)O)C(C)C)C(C)(C)C)C(C)(C)c1cccc(NC(=O)OCc2cc(C)c(OC3OC(C(=O)O)C(O)C(O)C3O)c(NC(=O)CCNC(=O)CCCCC(=O)N3Cc4ccccc4C#Cc4ccccc43)c2)c1 (stereo partly drawn) [Compound 109a] | 661 | 92 | 2440 | 95 | –
3 | CN[C@H](C(=O)N[C@H](C(=O)N(C)[C@H](/C=C(\C)C(=O)O)C(C)C)C(C)(C)C)C(C)(C)c1cccc(NC(=O)OCc2ccc(NC(=O)[C@H](C)NC(=O)[C@@H](NC(=O)CCCCC(=O)N3Cc4ccccc4C#Cc4ccccc43)C(C)C)cc2)c1 [Compound 110a] | 26 | 93 | 337 | 90 | –
4 | CNC(C(=O)N[C@H](C(=O)N(C)[C@H](/C=C(\C)C(=O)O)C(C)C)C(C)(C)C)C(C)(C)c1cccc(NC(=O)[C@H](C)NC(=O)[C@@H](NC(=O)CCCCC(=O)N2Cc3ccccc3C#Cc3ccccc32)C(C)C)c1 (stereo partly drawn) [Compound 111a] | 65 | 92 | 717 | 91 | –
5 | B1 | – | – | – | – | Cell Binding anti-CD74 Bmax (RPMI-6666 (HL)): 3879; Kd (RPMI-6666 (HL)): 2.3 nM; Cell Binding anti-CD74 Bmax (SU-DHL-6 (NHL)): 1565; Kd (SU-DHL-6 (NHL)): 2 nM; Cell Binding anti-CD74 Bmax (ARD (MM)): 190; Kd (ARD (MM)): 2.6 nM; Cell Binding anti-CD74 Bmax (RPMI-8226 (MM)): 119; Kd (RPMI-8226 (MM)): 3.6 nM; Cell Binding anti-CD74 Bmax (BDCM (AML)): 3059; Kd (BDCM (AML)): 4.5 nM; Cell Binding anti-CD74 Bmax (SUP-B15 (ALL)): 680; Kd (SUP-B15 (ALL)): 3.5 nM; Cell Binding anti-CD74 Bmax (JVM-13 (CLL)): 447; Kd (JVM-13 (CLL)): 2.5 nM
